The source of these data is ChEMBL document CHEMBL1126539, “Oxazole, thiazole, and imidazole derivatives of 2,6-di-tert-butylphenol as dual 5-lipoxygenase and cyclooxygenase inhibitors” (Bioorg Med Chem Lett, 1993).

pIC50: −log10 of the molar value.

In assay [1] the test system is RBL-1. Nature of the assay: Compound was tested for its inhibitory activity against PGF-2 alpha (CO) formation in RBL-1 cells stimulated with the calcium ionophore A-23187. The format is functional, cell-based. Conditions: Rattus norvegicus.
For assay [2], the system named is RBL-1. Nature of the assay: Compound was tested for its inhibitory activity against LTB4 (5-LO) formation in RBL-1 cells stimulated with the calcium ionophore A-23187. The conditions noted are these: Rattus norvegicus. The format is functional, cell-based.
Assay [3] relates to Rattus norvegicus. Description: Compound was tested for inhibition of edema in the carrageenan foot-pad edema test; inactive. The format is functional. In general terms: Carrageenan injected into the paw causes an acute inflammation.

One may read the pIC50 as the negative decadic logarithm of the IC50, by convention in mol/L. One may read the Inhibition as the percentage by which the read-out fell short of the control. Higher therefore signals a strong effect.

On to `CC(C)(C)c1cc(/C=C2\OC(N=C(N)N)=NC2=O)cc(C(C)(C)C)c1O`, for which the pIC50 was 6.47 in assay [1] and 5.92 in assay [2].
In turn, `CN1C(NC(=N)N)=NC(=O)/C1=C/c1cc(C(C)(C)C)c(O)c(C(C)(C)C)c1` showed an Inhibition in assay [3] of less than 25%. For the same compound, the results for the pIC50 in assay [1] and in assay [2] were 5.68 and 5.89, respectively.
For the compound `CC(C)(C)c1cc(/C=C2\SC(N=C(N)N)=NC2=O)cc(C(C)(C)C)c1O`, the pIC50 was 7.08 in assay [1] and 6.04 in assay [2].
On the same counts, the results for `CC(C)(C)c1cc(/C=C2\SC(=S)NC2=O)cc(C(C)(C)C)c1O` are 7.92 and 6.42.
In the case of `CC(C)(C)c1cc(/C=C2\OC(=S)NC2=O)cc(C(C)(C)C)c1O`, the pIC50 is 5.77 in assay [1] and 6.08 in assay [2].
The matching figures for `CC(C)(C)c1cc(/C=C2\OC(=O)NC2=O)cc(C(C)(C)C)c1O`: 6.19 and 5.55.
Compound `CN1C(=O)NC(=O)/C1=C/c1cc(C(C)(C)C)c(O)c(C(C)(C)C)c1` yielded an Inhibition in assay [3] of less than 25%. The pIC50 is 5.34 in assay [1] and 6.11 in assay [2].
Consider `CC(C)(C)c1cc(/C=C2\SC(=O)NC2=O)cc(C(C)(C)C)c1O`, for which the negative logarithm of the IC50 (pIC50) in assay [1] is 6.46.
Compound `CN1C(=S)NC(=O)/C1=C/c1cc(C(C)(C)C)c(O)c(C(C)(C)C)c1` displayed an Inhibition in assay [3] of less than 25%. The pIC50 in assay [1] is 6.10; in assay [2], 6.77.
As to `CC(C)(C)c1cc(/C=C2\SC(=N)NC2=O)cc(C(C)(C)C)c1O` [DARBUFELONE], the pIC50 in assay [1] was 6.96; in assay [2], 5.92.
As to `Cc1ccc(Cl)c(Nc2ccccc2C(=O)O)c1Cl` [MECLOFENAMATE SODIUM], the negative logarithm of the IC50 (pIC50) in assay [2] is 4.62.
